Measured values published in ChEMBL document CHEMBL1201862, “PubChem BioAssay data set” (2004).
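Compound exposure: 48 hours, 5 concentrations, 96-well plates. The concentration for 50% growth inhibition is given as GI50.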 Active and inactive are the calls of the source. No stated cut-off is given here; in the data, active = GI50 up to about 1.1 µM and inactive = higher.

Experiments:
Test in all cases: inhibition of tumour cell growth, NCI panel, 48 h
OVCAR-5 = system: OVCAR-5
A549 = system: A549
U-251 = system: U-251
OVCAR-3 = system: OVCAR-3
EKVX = system: EKVX
HOP-92 = system: HOP-92
K562 = system: K562
HT-29 = system: HT-29
IGROV-1 = system: IGROV-1
HL-60 = system: HL-60
NCI-H522 = system: NCI-H522
NCI-H460 = system: NCI-H460
SK-OV-3 = system: SK-OV-3
HOP-62 = system: HOP-62
SF-539 = system: SF-539
HCT-116 = system: HCT-116
SR = system: SR

SMILES	GI50 (OVCAR-5)	GI50 (A549)	GI50 (U-251)	GI50 (OVCAR-3)	GI50 (EKVX)	GI50 (HOP-92)	GI50 (K562)	GI50 (HT-29)	GI50 (IGROV-1)	GI50 (HL-60)	GI50 (NCI-H522)	GI50 (NCI-H460)	GI50 (SK-OV-3)	GI50 (HOP-62)	GI50 (SF-539)	GI50 (HCT-116)	GI50 (SR)
Cc1c(C(=O)CC(=O)C(=O)Nc2c(C(C)C)cccc2C(C)C)[n+]([O-])c2ccccc2[n+]1[O-]	21.3 µM (inactive)	15.7 µM (inactive)	3.09 µM (inactive)	2.08 µM (inactive)	13.8 µM (inactive)	16.1 µM (inactive)	6.12 µM (inactive)	3.56 µM (inactive)	3.55 µM (inactive)	2.4 µM (inactive)	2.25 µM (inactive)	2.62 µM (inactive)	16.7 µM (inactive)	29.7 µM (inactive)	4.43 µM (inactive)	2.81 µM (inactive)	–
O=C1c2ccccc2CC1C1(O)C(=O)Nc2ccccc21 (centres undefined)	> 100 µM (inactive)	> 100 µM (inactive)	–	> 100 µM (inactive)	> 100 µM (inactive)	> 100 µM (inactive)	> 100 µM (inactive)	> 100 µM (inactive)	> 100 µM (inactive)	> 100 µM (inactive)	> 100 µM (inactive)	> 100 µM (inactive)	> 100 µM (inactive)	> 100 µM (inactive)	> 100 µM (inactive)	> 100 µM (inactive)	–
CC(C)(C)[C@H]1CC[C@@](O)(c2ccccc2)CC1.CC(C)(C)[C@H]1CC[C@](O)(c2ccccc2)CC1	44.7 µM (inactive)	26 µM (inactive)	16.3 µM (inactive)	17.2 µM (inactive)	23.1 µM (inactive)	–	15.2 µM (inactive)	16.2 µM (inactive)	25.9 µM (inactive)	16.3 µM (inactive)	23.4 µM (inactive)	27 µM (inactive)	72.8 µM (inactive)	26.7 µM (inactive)	18.1 µM (inactive)	22.2 µM (inactive)	15.2 µM (inactive)
Cc1ccc2oc(=O)cc(CC(=O)O)c2c1	> 100 µM (inactive)	> 100 µM (inactive)	> 100 µM (inactive)	> 100 µM (inactive)	> 100 µM (inactive)	> 100 µM (inactive)	> 100 µM (inactive)	> 100 µM (inactive)	> 100 µM (inactive)	> 100 µM (inactive)	> 100 µM (inactive)	> 100 µM (inactive)	> 100 µM (inactive)	> 100 µM (inactive)	> 100 µM (inactive)	> 100 µM (inactive)	–
C1=Cc2nc1c(-c1ccccc1)c1ccc([n-]1)c(-c1ccccc1)c1nc(c(-c3ccccc3)c3ccc([n-]3)c2-c2ccccc2)C=C1.[Zn+2]	> 100 µM (inactive)	> 100 µM (inactive)	> 100 µM (inactive)	> 100 µM (inactive)	> 100 µM (inactive)	> 100 µM (inactive)	> 100 µM (inactive)	> 100 µM (inactive)	> 100 µM (inactive)	45 µM (inactive)	> 100 µM (inactive)	> 100 µM (inactive)	> 100 µM (inactive)	19.9 µM (inactive)	> 100 µM (inactive)	> 100 µM (inactive)	–
CC(C(=O)c1ccc(Cl)cc1)C1OC(=O)C(Cl)=C1Cl (centres undefined)	> 100 µM (inactive)	> 100 µM (inactive)	> 100 µM (inactive)	28.5 µM (inactive)	39.4 µM (inactive)	–	25.2 µM (inactive)	31.6 µM (inactive)	29.3 µM (inactive)	19 µM (inactive)	18.9 µM (inactive)	> 100 µM (inactive)	> 100 µM (inactive)	> 100 µM (inactive)	27.6 µM (inactive)	–	–
O=C(O)CCC1c2[nH]c3ccccc3c2CCN1Cc1ccccc1 (centres undefined)	> 100 µM (inactive)	> 100 µM (inactive)	> 100 µM (inactive)	> 100 µM (inactive)	> 100 µM (inactive)	> 100 µM (inactive)	> 100 µM (inactive)	> 100 µM (inactive)	> 100 µM (inactive)	> 100 µM (inactive)	> 100 µM (inactive)	> 100 µM (inactive)	> 100 µM (inactive)	–	> 100 µM (inactive)	> 100 µM (inactive)	> 100 µM (inactive)
CC(C)(C)C1CCN(C(=O)c2ccccc2)CC1	> 100 µM (inactive)	90.6 µM (inactive)	> 100 µM (inactive)	36.8 µM (inactive)	> 100 µM (inactive)	–	63.4 µM (inactive)	> 100 µM (inactive)	> 100 µM (inactive)	32.9 µM (inactive)	62.7 µM (inactive)	> 100 µM (inactive)	> 100 µM (inactive)	> 100 µM (inactive)	> 100 µM (inactive)	53.8 µM (inactive)	64.6 µM (inactive)
COc1ccc(/N=N/c2c(-c3ccccc3)nn(C(=O)CC(=O)Nc3ccc(OC)cc3)c2-c2ccccc2)cc1	> 100 µM (inactive)	> 100 µM (inactive)	58.3 µM (inactive)	> 100 µM (inactive)	71.1 µM (inactive)	16 µM (inactive)	27 µM (inactive)	> 100 µM (inactive)	39.9 µM (inactive)	> 100 µM (inactive)	61.5 µM (inactive)	> 100 µM (inactive)	40.6 µM (inactive)	23.4 µM (inactive)	18.6 µM (inactive)	60 µM (inactive)	–
O=c1[nH]c2cc([N+](=O)[O-])ccc2nc1/C(=N\NO)C(O)c1ccc([N+](=O)[O-])cc1 (centres undefined)	> 100 µM (inactive)	> 100 µM (inactive)	> 100 µM (inactive)	> 100 µM (inactive)	–	> 100 µM (inactive)	> 100 µM (inactive)	> 100 µM (inactive)	> 100 µM (inactive)	79.4 µM (inactive)	44.7 µM (inactive)	> 100 µM (inactive)	> 100 µM (inactive)	> 100 µM (inactive)	31.3 µM (inactive)	> 100 µM (inactive)	> 100 µM (inactive)
O=C1Nc2cc(F)ccc2C1=O	> 100 µM (inactive)	> 100 µM (inactive)	> 100 µM (inactive)	–	> 100 µM (inactive)	> 100 µM (inactive)	> 100 µM (inactive)	> 100 µM (inactive)	> 100 µM (inactive)	> 100 µM (inactive)	60.7 µM (inactive)	> 100 µM (inactive)	> 100 µM (inactive)	> 100 µM (inactive)	> 100 µM (inactive)	–	–
COc1ccc2oc(C(=O)O)c3c2c1CCC3	–	> 100 µM (inactive)	> 100 µM (inactive)	> 100 µM (inactive)	> 100 µM (inactive)	42.5 µM (inactive)	> 100 µM (inactive)	> 100 µM (inactive)	> 100 µM (inactive)	> 100 µM (inactive)	–	> 100 µM (inactive)	> 100 µM (inactive)	> 100 µM (inactive)	> 100 µM (inactive)	> 100 µM (inactive)	–
COc1cc(/C=C2\Cc3ccccc3C2=O)cc(OC)c1OC	> 100 µM (inactive)	> 100 µM (inactive)	> 100 µM (inactive)	> 100 µM (inactive)	> 100 µM (inactive)	77.3 µM (inactive)	> 100 µM (inactive)	> 100 µM (inactive)	–	> 100 µM (inactive)	> 100 µM (inactive)	> 100 µM (inactive)	> 100 µM (inactive)	> 100 µM (inactive)	> 100 µM (inactive)	> 100 µM (inactive)	–
C/C=C/C=C\C(=O)C1c2cccc(O)c2C(=O)c2c(O)cc(C)cc21 (centres undefined)	1.82 µM (inactive)	0.719 µM (active)	0.446 µM (active)	1.02 µM (active)	3.38 µM (inactive)	1.39 µM (inactive)	0.356 µM (active)	2.06 µM (inactive)	1.57 µM (inactive)	0.294 µM (active)	1.66 µM (inactive)	0.406 µM (active)	1.43 µM (inactive)	2.04 µM (inactive)	0.432 µM (active)	1.52 µM (inactive)	–
O=C(O)CCSC(=O)Nc1ccccc1F	> 100 µM (inactive)	> 100 µM (inactive)	> 100 µM (inactive)	> 100 µM (inactive)	> 100 µM (inactive)	–	> 100 µM (inactive)	> 100 µM (inactive)	–	> 100 µM (inactive)	> 100 µM (inactive)	> 100 µM (inactive)	–	> 100 µM (inactive)	> 100 µM (inactive)	> 100 µM (inactive)	> 100 µM (inactive)
CC12CCC3(OCCO3)C(OC(=O)c3ccccc3)=C1CCC21OCCO1 (centres undefined)	> 100 µM (inactive)	> 100 µM (inactive)	> 100 µM (inactive)	> 100 µM (inactive)	> 100 µM (inactive)	> 100 µM (inactive)	–	> 100 µM (inactive)	> 100 µM (inactive)	> 100 µM (inactive)	> 100 µM (inactive)	> 100 µM (inactive)	> 100 µM (inactive)	> 100 µM (inactive)	> 100 µM (inactive)	> 100 µM (inactive)	> 100 µM (inactive)
CC12OC3(C)OC(=O)C(c4ccccc4)(O1)C3(C)O2 (centres undefined)	> 100 µM (inactive)	> 100 µM (inactive)	> 100 µM (inactive)	> 100 µM (inactive)	> 100 µM (inactive)	> 100 µM (inactive)	> 100 µM (inactive)	> 100 µM (inactive)	> 100 µM (inactive)	> 100 µM (inactive)	> 100 µM (inactive)	–	> 100 µM (inactive)	–	> 100 µM (inactive)	> 100 µM (inactive)	–
CCCCCCCCC1C(C)c2c([nH]c3ccccc23)C2C(=O)N(c3ccccc3)C(=O)C21 (centres undefined)	18.3 µM (inactive)	14 µM (inactive)	8.53 µM (inactive)	5.08 µM (inactive)	21.1 µM (inactive)	–	3.9 µM (inactive)	4.7 µM (inactive)	17.6 µM (inactive)	3.27 µM (inactive)	–	3.82 µM (inactive)	28.7 µM (inactive)	21 µM (inactive)	17.3 µM (inactive)	3.27 µM (inactive)	–
